According to PubChem BioAssay (NCI):
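These data come from cells grown in 96-well plates and exposed to compound for 48 hours at five concentrations. GI50 marks 50% less growth. TGI denotes the concentration required for complete inhibition of growth.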

Assays:
Assay in all cases: inhibition of tumour cell growth, NCI panel, 48 h
786-0 renal = tested on: 786-0 renal
A498 renal = tested on: A498 renal
A549 NSCLC = tested on: A549 NSCLC
ACHN renal = tested on: ACHN renal
BT-549 breast = tested on: BT-549 breast
CAKI-1 renal = tested on: CAKI-1 renal
CCRF-CEM leukemia = tested on: CCRF-CEM leukemia
COLO 205 colon = tested on: COLO 205 colon
DU-145 prostate = tested on: DU-145 prostate
HCC-2998 colon = tested on: HCC-2998 colon
HCT-116 colon = tested on: HCT-116 colon
HCT-15 colon = tested on: HCT-15 colon
HL-60(TB) leukemia = tested on: HL-60(TB) leukemia
HOP-62 NSCLC = tested on: HOP-62 NSCLC
HOP-92 NSCLC = tested on: HOP-92 NSCLC
HS 578T breast = tested on: HS 578T breast
HT29 colon = tested on: HT29 colon
IGROV1 ovarian = tested on: IGROV1 ovarian
K-562 leukemia = tested on: K-562 leukemia
KM12 colon = tested on: KM12 colon
LOX IMVI melanoma = tested on: LOX IMVI melanoma
M14 melanoma = tested on: M14 melanoma
MALME-3M melanoma = tested on: MALME-3M melanoma
MCF7 breast = tested on: MCF7 breast
MDA-MB-231 breast = tested on: MDA-MB-231 breast
MDA-MB-435 = tested on: MDA-MB-435
MOLT-4 leukemia = tested on: MOLT-4 leukemia
NCI-H226 lung = tested on: NCI-H226 lung
NCI-H23 lung = tested on: NCI-H23 lung
NCI-H460 lung = tested on: NCI-H460 lung
NCI-H522 lung = tested on: NCI-H522 lung
NCI/ADR-RES ovarian = tested on: NCI/ADR-RES ovarian
OVCAR-3 ovarian = tested on: OVCAR-3 ovarian
OVCAR-4 ovarian = tested on: OVCAR-4 ovarian
OVCAR-5 ovarian = tested on: OVCAR-5 ovarian
OVCAR-8 ovarian = tested on: OVCAR-8 ovarian
PC-3 prostate = tested on: PC-3 prostate
RPMI-8226 leukemia = tested on: RPMI-8226 leukemia
RXF 393 renal = tested on: RXF 393 renal
SF-268 CNS = tested on: SF-268 CNS
SF-295 CNS = tested on: SF-295 CNS
SF-539 CNS = tested on: SF-539 CNS
SK-MEL-2 melanoma = tested on: SK-MEL-2 melanoma
SK-MEL-28 melanoma = tested on: SK-MEL-28 melanoma
SK-MEL-5 melanoma = tested on: SK-MEL-5 melanoma
SK-OV-3 ovarian = tested on: SK-OV-3 ovarian
SN12C renal = tested on: SN12C renal
SNB-19 CNS = tested on: SNB-19 CNS
SNB-75 CNS = tested on: SNB-75 CNS
SR leukemia = tested on: SR leukemia
SW-620 colon = tested on: SW-620 colon
T-47D breast = tested on: T-47D breast
TK-10 renal = tested on: TK-10 renal
U251 CNS = tested on: U251 CNS
UACC-257 melanoma = tested on: UACC-257 melanoma
UACC-62 melanoma = tested on: UACC-62 melanoma
UO-31 renal = tested on: UO-31 renal

CN1CCN(CC#Cc2cccc(C(=O)c3cnn(-c4ccc(F)cc4)c3N)c2)CC1
GI50 (786-0 renal): > 25 µM | TGI (786-0 renal): > 25 µM | GI50 (A498 renal): > 25 µM | TGI (A498 renal): > 25 µM | GI50 (A549 NSCLC): > 25 µM | TGI (A549 NSCLC): > 25 µM | GI50 (ACHN renal): > 25 µM | TGI (ACHN renal): > 25 µM | GI50 (BT-549 breast): > 25 µM | TGI (BT-549 breast): > 25 µM | GI50 (CAKI-1 renal): > 25 µM | TGI (CAKI-1 renal): > 25 µM | GI50 (CCRF-CEM leukemia): > 25 µM | TGI (CCRF-CEM leukemia): > 25 µM | GI50 (COLO 205 colon): > 25 µM | TGI (COLO 205 colon): > 25 µM | GI50 (DU-145 prostate): > 25 µM | TGI (DU-145 prostate): > 25 µM | GI50 (HCC-2998 colon): > 25 µM | TGI (HCC-2998 colon): > 25 µM | GI50 (HCT-116 colon): > 25 µM | TGI (HCT-116 colon): > 25 µM | GI50 (HCT-15 colon): > 25 µM | TGI (HCT-15 colon): > 25 µM | GI50 (HL-60(TB) leukemia): 24.6 µM | TGI (HL-60(TB) leukemia): > 25 µM | GI50 (HOP-62 NSCLC): > 25 µM | TGI (HOP-62 NSCLC): > 25 µM | GI50 (HOP-92 NSCLC): 15.2 µM | TGI (HOP-92 NSCLC): > 25 µM | GI50 (HS 578T breast): > 25 µM | TGI (HS 578T breast): > 25 µM | GI50 (HT29 colon): > 19.3 µM | TGI (HT29 colon): > 25 µM | GI50 (IGROV1 ovarian): > 25 µM | TGI (IGROV1 ovarian): > 25 µM | GI50 (K-562 leukemia): > 25 µM | TGI (K-562 leukemia): > 25 µM | GI50 (KM12 colon): > 25 µM | TGI (KM12 colon): > 25 µM | GI50 (LOX IMVI melanoma): > 25 µM | TGI (LOX IMVI melanoma): > 25 µM | GI50 (M14 melanoma): > 25 µM | TGI (M14 melanoma): > 25 µM | GI50 (MALME-3M melanoma): > 25 µM | TGI (MALME-3M melanoma): > 25 µM | GI50 (MCF7 breast): > 25 µM | TGI (MCF7 breast): > 25 µM | GI50 (MDA-MB-231 breast): > 25 µM | TGI (MDA-MB-231 breast): > 25 µM | GI50 (MDA-MB-435): > 25 µM | TGI (MDA-MB-435): > 25 µM | GI50 (MOLT-4 leukemia): > 25 µM | TGI (MOLT-4 leukemia): > 25 µM | GI50 (NCI-H226 lung): > 25 µM | TGI (NCI-H226 lung): > 25 µM | GI50 (NCI-H23 lung): > 25 µM | TGI (NCI-H23 lung): > 25 µM | GI50 (NCI-H460 lung): > 25 µM | TGI (NCI-H460 lung): > 25 µM | GI50 (NCI-H522 lung): > 25 µM | TGI (NCI-H522 lung): > 25 µM | GI50 (NCI/ADR-RES ovarian): > 25 µM | TGI (NCI/ADR-RES ovarian): > 25 µM | GI50 (OVCAR-3 ovarian): > 25 µM | TGI (OVCAR-3 ovarian): > 25 µM | GI50 (OVCAR-4 ovarian): > 25 µM | TGI (OVCAR-4 ovarian): > 25 µM | GI50 (OVCAR-5 ovarian): > 25 µM | TGI (OVCAR-5 ovarian): > 25 µM | GI50 (OVCAR-8 ovarian): > 25 µM | TGI (OVCAR-8 ovarian): > 25 µM | GI50 (PC-3 prostate): > 25 µM | TGI (PC-3 prostate): > 25 µM | GI50 (RPMI-8226 leukemia): > 25 µM | TGI (RPMI-8226 leukemia): > 25 µM | GI50 (RXF 393 renal): > 25 µM | TGI (RXF 393 renal): > 25 µM | GI50 (SF-268 CNS): > 25 µM | TGI (SF-268 CNS): > 25 µM | GI50 (SF-295 CNS): > 25 µM | TGI (SF-295 CNS): > 25 µM | GI50 (SF-539 CNS): > 25 µM | TGI (SF-539 CNS): > 25 µM | GI50 (SK-MEL-2 melanoma): > 25 µM | TGI (SK-MEL-2 melanoma): > 25 µM | GI50 (SK-MEL-28 melanoma): > 25 µM | TGI (SK-MEL-28 melanoma): > 25 µM | GI50 (SK-MEL-5 melanoma): > 25 µM | TGI (SK-MEL-5 melanoma): > 25 µM | GI50 (SK-OV-3 ovarian): > 25 µM | TGI (SK-OV-3 ovarian): > 25 µM | GI50 (SN12C renal): > 25 µM | TGI (SN12C renal): > 25 µM | GI50 (SNB-19 CNS): > 25 µM | TGI (SNB-19 CNS): > 25 µM | GI50 (SNB-75 CNS): > 25 µM | TGI (SNB-75 CNS): > 25 µM | GI50 (SR leukemia): > 25 µM | TGI (SR leukemia): > 25 µM | GI50 (SW-620 colon): > 25 µM | TGI (SW-620 colon): > 25 µM | GI50 (T-47D breast): > 25 µM | TGI (T-47D breast): > 25 µM | GI50 (TK-10 renal): > 25 µM | TGI (TK-10 renal): > 25 µM | GI50 (U251 CNS): > 25 µM | TGI (U251 CNS): > 25 µM | GI50 (UACC-257 melanoma): > 25 µM | TGI (UACC-257 melanoma): > 25 µM | GI50 (UACC-62 melanoma): > 25 µM | TGI (UACC-62 melanoma): > 25 µM | GI50 (UO-31 renal): > 25 µM | TGI (UO-31 renal): > 25 µM
